Measurements reported in US20030196279A1, “Single-bath biopreparation and dyeing of textiles” (Novozymes North America, Inc., priority 1999, published 2003).

Assays:
pectate lyase = experiment: Compatibility of pectate lyase with dyes, vibration viscometry assay on polygalacturonic acid; assay type: biochemical; details: 0.5 ml of 10 g/l dye solution added; pH 8.5, 40° C., 20 minutes; relative to none-dye control
Method: An analytical assay is used in compatibility tests. Prior to this assay, 5 mM phosphate buffer pH 8.5 is made up using KH2PO4 and NaOH (both from Fisher). The other solutions are constituted as follows:
i) The substrate is polygalacturonic acid in sodium salt form (from SIGMA). The substrate solution is made up to 11.436 g/l by dissolving polygalacturonic acid sodium salt in the phosphate buffer.
ii) Dye solutions are made up to 10 g/l by dissolving a commercial dye in the phosphate buffer.
iii) An internal standard pectate lyase (2600 APSU/g) is used. The enzyme solution is made up to 500 APSU/ml by dissolving the pectate lyase in the phosphate buffer.
During the assay, 3.5 ml substrate solution was pipetted into each tube. 0.5 ml of a dye solution or buffer was added and mixed well. The tube was then preheated in 40° C. water bath for 5 minutes. A total of 0.5 ml solution, including enzyme, and buffer was added using Hamilton Micro Lab 900. In dye compatibility, the 0.5 ml solution was made up with 40 μl enzyme solution and 460 μl buffer. For standard curve, 0-90 μl enzyme solution was used. Once enzyme was added, the solution was mixed immediately and the tube incubated at 40° C. for 20 minutes. The viscosity was then measured after putting the tube on a vibration viscometer (Sofraser Viscometer-mivi 3000, from France) for 10 seconds. At all conditions, experiments were performed in duplicate.
A standard linear curve was obtained within 0-5 APSU/ml pectate lyase concentration range (0-45 μl enzyme solution added). The correlation is given in the equation below: […]
Since the Y was obtained from experimental measurements, X was then calculated using the above equation. The enzyme activity with the addition of dye was compared to the activity of none-dye control. The relative activity is illustrated in Table 13. […] Since the chromophore structure of reactive dye shares similar chemical structure of direct dye and other dye classes, similar compatibility results may be expected for other dye classes. […] Since commercial dyes are not pure and often contains salt, the positive impact may be due to the salt in dye formula.

[1] = Wetting test, water drop test, AATCC Test Method 79-1992; details: Example 10; added to pectinase biopreparation and dyeing solution
Method: The wetting test was performed using water according to AATCC Test Method 79-1992. Five measurements were taken from each of three areas along the fabric in this water drop test. Color measurements were made using reflectance Macbeth Color Eye System with Optiview 1.7 software, using 10° standard observer and illuminant D65, which represents average daylight over range of 380-830 nm. Ten measurements at different positions of fabric tube were carried out.

[2] = system: pectate lyase activity on woven cotton fabric; details: Example 5; 2000 APSU/kg pectate lyase, pH 9.2, 60° C., 30 minutes, woven fabric 480U
Method: A buffer containing 2 mM borate at pH 9.2 and 1 g/l nonionic surfactant Tergitol 15-S-12 was prepared. The solution was transferred to Labomat beakers (Werner-Mathis USA, Inc., NC). […] Swatches of a woven fabric (type 480U from Testfabrics, Inc., PA) were then added to the beakers so that the liquor-to-fabric ratio was 10 ml/g. After the temperature was raised to 60° C., 2000 APSU/kg fiber of pectate lyase were added and the fabric was incubated at 60° C. for 30 minutes. The swatches were then removed and rinsed twice in hot and cold water.
The amount of residual pectic substances remaining on the fabric was determined by measuring the color strength of the fabric dyed with Ruthenium red, a dye with an affinity for pectic substances. For the Ruthenium red assay, a fresh solution was prepared containing 0.2 g/l Ruthenium red, 1.0 g/l ammonium chloride, 2.5 ml/l 28% ammonium hydroxide solution, 1.0 g/l Silwet L-77 (Wetter, Polyalkyleneoxide modified heptamethyltrisiloxane), and 1.1 g/l Tergitol 15-S-12. The solution was used at a ratio of 100 ml solution/gram of fabric. Fabric swatches were dyed at room temperature in Labomat beakers for 15 minutes and then rinsed with cold water. After drying, the color of swatches was assessed by measuring the reflectance of the Ruthenium red-dyed fabric on Macbeth color eye at 540 nm, and the dye on the fabric was calculated as K/S value.

Compound | % Activity (relative pectate lyase activity) (pectate lyase) [%] | also measured
Nc1c(S(=O)(=O)[O-])cc(Nc2cccc(S(=O)(=O)CCOS(=O)(=O)[O-])c2)c2c1C(=O)c1ccccc1C2=O.[Na+].[Na+] [Remazol Br. Blue R Spec.] | 200.9 | 
O=P(O)(O)OP(=O)(O)OP(=O)(O)O [sodium tripoly phosphate (STPP), sodium tripoly phosphate] |  | wettability (wetting time in the drop test, FIG. 2) [1]: better wettability
Nc1c(N=Nc2ccc(S(=O)(=O)CCOS(=O)(=O)[O-])cc2)c(S(=O)(=O)[O-])cc2cc(S(=O)(=O)[O-])c(N=Nc3ccc(S(=O)(=O)CCOS(=O)(=O)[O-])cc3)c(O)c12.[Na+].[Na+].[Na+].[Na+] [Remazol Black B] | 114.8 | 
cellulase |  | wettability (wetting time in the drop test, FIG. 2) [1]: better wettability
O=S(=O)([O-])[O-].[Na+].[Na+] [sodium sulfate] |  | sodium sulfate concentration at which a minimum amount of pectic residue was left on the fabric [2]: about 20 g/l
CC(=O)Nc1ccc2cc(S(=O)(=O)O)c(N=Nc3ccc(S(=O)(=O)CCOS(=O)(=O)O)cc3)c(O)c2c1.[Na] [Remazol Br. Orange 3R] | 110.1 | 
C=C(Br)C(=O)Nc1ccc(N=Nc2c(NC)ccc3cc(S(=O)(=O)[O-])cc(O)c23)c(S(=O)(=O)[O-])c1.[Na+].[Na+] [Lanasol Red 5B] | 117.6 | 
